The values that follow come from patent US20100286181A1, “PYRROLE DERIVATIVES WITH ANTIBACTERIAL ACTIVITY” (ASTRAZENECA AB, priority 2006, published 2010).

pIC50: −log10 of the molar value.

The target in this experiment is GyrB ATPase activity (E. coli GyrA, E. coli GyrB) (Escherichia coli, UniProt P0AES6). Briefly: GyrB ATPase inhibition activity assay (ammonium molybdate/malachite green phosphate detection). The experiment is classed as biochemical. Conditions: figure quoted may be an average of two or more results. Here is the method: Compounds may be tested for inhibition of GyrB ATPase activity using an ammonium molybdate/malachite green-based phosphate detection assay (Lanzetta, P. A., L. J. Alvarez, P. S. Reinach, and O. A. Candia, 1979, 100: 95-97). Assays can be performed in multiwell plates in 100 μl reactions containing: 50 mM HEPES buffer pH 7.5, 75 mM ammonium acetate, 5.5 mM magnesium chloride, 0.5 mM ethylenediaminetetraacetic acid, 5% glycerol, 1 mM 1,4-Dithio-DL-threitol, 200 nM bovine serum albumin, 5 μg/ml sheared salmon sperm DNA, 2.5 nM E. coli GyrA, 2.5 nM E. coli GyrB, 250 μM ATP, and compound in dimethylsulfoxide. Reactions can be quenched with 150 μl of ammonium molybdate/malachite green detection reagent containing 1.2 mM malachite green hydrochloride, 8.5 mM ammonium molybdate tetrahydrate, and 1 M hydrochloric acid.
Compounds of the Examples could be expected to have IC50 values of <200 μg/ml in one or both assays described herein above. For Example the following results were obtained in a GyrB ATPase inhibition activity assay substantially similar to the above wherein the figure quoted may be an average of two or more results
In the case of `CO/N=C1\CN(c2nc(-c3ncnn3C)c(C(=O)OC)s2)CCC1NC(=O)c1[nH]c(C)c(Cl)c1Cl` (centres unmarked) [Example 34, Methyl 2-[(3E)-4-{[(3,4-dichloro-5-methyl-1H-pyrrol-2-yl)carbonyl]amino}-3-(methoxyimino)piperidin-1-yl]-4-(1-methyl-1H-1,2,4-triazol-5-yl)-1,3-thiazole-5-carboxylate], the pIC50 is 7.18.
Turning to `COCCn1ccnc1-c1nc(N2CCC(NC(=O)c3[nH]c(C)c(Cl)c3Cl)/C(=N/OC)C2)sc1C(=O)O` (centres unmarked) [Example 27, 2-[(3E)-4-{[(3,4-Dichloro-5-methyl-1H-pyrrol-2-yl)carbonyl]amino}-3-(methoxyimino)piperidin-1-yl]-4-[1-(2-methoxyethyl)-1H-imidazol-2-yl]-1,3-thiazole-5-carboxylic acid], the pIC50 is more than 7.20.
Under `COCC(COC)NC(=O)c1nc(N2CC[C@@H](NC(=O)c3[nH]c(C)c(Cl)c3Cl)[C@@H](n3cc(CF)nn3)C2)sc1C(=O)O` [Example 112] stands more than 8.01; under `CNC(=O)c1nc(N2CCC(NC(=O)c3[nH]c(C)c(Cl)c3Cl)C3(C2)OCCO3)sc1C(=O)O` (centres unmarked) [Example 13, 2-(10-{[(3,4-Dichloro-5-methyl-1H-pyrrol-2-yl)carbonyl]amino}-1,4-dioxa-7-azaspiro[4.5]dec-7-yl)-4-[(methylamino)carbonyl]-1,3-thiazole-5-carboxylic acid], more than 7.16.
Under `COC(=O)c1cnc(N2CC[C@H](NC(=O)c3[nH]c(C)c(Cl)c3Cl)[C@H](n3cnc(Cl)n3)C2)s1` (racemic) [Example 40, cis(±)Methyl 2-(3-(3-chloro-1H-1,2,4-triazol-1-yl)-4-{[(3,4-dichloro-5-methyl-1H-pyrrol-2-yl)carbonyl]amino}piperidin-1-yl)-1,3-thiazole-5-carboxylate] stands 7.28; under `Cc1[nH]c(C(=O)N[C@@H]2CCN(c3nc4cccc(C(=O)O)c4s3)C[C@@H]2n2ccnn2)c(Cl)c1Cl` [Example 124, 2-[(3S,4R)-4-{[(3,4-Dichloro-5-methyl-1H-pyrrol-2-yl)carbonyl]amino}-3-(1H-1,2,3-triazol-1-yl)piperidin-1-yl]-1,3-benzothiazole-7-carboxylic acid], more than 8.01; under `COCC(COC)NC(=O)c1nc(N2CC[C@@H](NC(=O)c3[nH]c(C)c(Cl)c3Cl)[C@@H](n3cc(Cl)nn3)C2)sc1C(=O)O` [Example 109], more than 8.01.
With `COC[C@H](C)NC(=O)c1nc(N2CC[C@H](NC(=O)c3[nH]c(C)c(Cl)c3Cl)[C@H](n3cncn3)C2)sc1C(=O)O` (racemic) [Example 50, cis(±)2-[4-{[(3,4-Dichloro-5-methyl-1H-pyrrol-2-yl)carbonyl]amino}-3-(1H-1,2,4-triazol-1-yl)piperidin-1-yl]-4-({[(1S)-2-methoxy-1-methylethyl]amino}carbonyl)-1,3-thiazole-5-carboxylic acid], the pIC50 is more than 8.01.
Under `CNC(=O)c1nc(N2CCC(NC(=O)c3[nH]c(C)c(Cl)c3Cl)/C(=N/OC)C2)sc1C(=O)OC` (centres unmarked) [Example 31, Methyl 2-[(3E)-4-{[(3,4-dichloro-5-methyl-1H-pyrrol-2-yl)carbonyl]amino}-3-(methoxyimino)piperidin-1-yl]-4-[(methylamino)carbonyl]-1,3-thiazole-5-carboxylate] stands 7.31; under `Cc1[nH]c(C(=O)N[C@@H]2CCN(c3ncc(C(=O)O)s3)C[C@@H]2n2ccnn2)c(Cl)c1Cl` [Example 101, 2-[(3S,4R)-4-{[(3,4-Dichloro-5-methyl-1H-pyrrol-2-yl)carbonyl]amino}-3-(1H-1,2,3-triazol-1-yl)piperidin-1-yl]-1,3-thiazole-5-carboxylic acid], more than 8.01.
With `COC(=O)c1cnc(N2CC[C@H](NC(=O)c3[nH]c(C)c(Cl)c3Cl)[C@H](N=[N+]=[N-])C2)s1` (racemic) [Example 65, cis(±)Methyl 2-(3-azido-4-{[(3,4-dichloro-5-methyl-1H-pyrrol-2-yl)carbonyl]amino}piperidin-1-yl)-1,3-thiazole-5-carboxylate] the figure was more than 8.01.

In general, pIC50 refers to the negative decadic logarithm of the IC50, by convention in mol/L. A low value points to a large IC50.
